Key:
Salmonella typhimurium [1] = test: Antimutagenic activity in Salmonella Typhimurium T-98 assessed as inhibition of 2-aminoanthracene-induced mutation at 150 ug/plate; type: functional, Salmonella enterica subsp. enterica serovar Typhimurium
Salmonella typhimurium [2] = test: Antimutagenic activity in Salmonella Typhimurium T-98 assessed as inhibition of 2-aminoanthracene-induced mutation at 300 ug/plate; type: functional, Salmonella enterica subsp. enterica serovar Typhimurium
Salmonella typhimurium [3] = test: Antimutagenic activity in Salmonella Typhimurium T-98 assessed as inhibition of 2-aminoanthracene-induced mutation at 75 ug/plate; type: functional, Salmonella enterica subsp. enterica serovar Typhimurium
Salmonella typhimurium [4] = test: Antimutagenic activity in Salmonella Typhimurium T-98 assessed as inhibition of 2-aminoanthracene-induced mutation at 37.5 ug/plate; type: functional, Salmonella enterica subsp. enterica serovar Typhimurium
Salmonella typhimurium [5] = test: Antimutagenic activity in Salmonella Typhimurium T-98 assessed as inhibition of acetylaminofluorene-induced mutation at 300 ug/plate; type: functional, Salmonella enterica subsp. enterica serovar Typhimurium
Salmonella typhimurium [6] = test: Antimutagenic activity in Salmonella Typhimurium T-98 assessed as inhibition of acetylaminofluorene-induced mutation at 150 ug/plate; type: functional, Salmonella enterica subsp. enterica serovar Typhimurium
Salmonella typhimurium [7] = test: Antimutagenic activity in Salmonella Typhimurium T-98 assessed as inhibition of acetylaminofluorene-induced mutation at 75 ug/plate; type: functional, Salmonella enterica subsp. enterica serovar Typhimurium
Salmonella typhimurium [8] = test: Antimutagenic activity in Salmonella Typhimurium T-98 assessed as inhibition of acetylaminofluorene-induced mutation at 37.5 ug/plate; type: functional, Salmonella enterica subsp. enterica serovar Typhimurium
Salmonella typhimurium [9] = test: Antimutagenic activity in Salmonella Typhimurium T-100 assessed as inhibition of ethyl methanesulfonate-induced mutation at 300 ug/plate; type: functional, Salmonella enterica subsp. enterica serovar Typhimurium
Salmonella typhimurium [10] = test: Antimutagenic activity in Salmonella Typhimurium T-100 assessed as inhibition of ethyl methanesulfonate-induced mutation at 150 ug/plate; type: functional, Salmonella enterica subsp. enterica serovar Typhimurium
Salmonella typhimurium [11] = test: Antimutagenic activity in Salmonella Typhimurium T-100 assessed as inhibition of ethyl methanesulfonate-induced mutation at 75 ug/plate; type: functional, Salmonella enterica subsp. enterica serovar Typhimurium
Salmonella typhimurium [12] = test: Antimutagenic activity in Salmonella Typhimurium T-100 assessed as inhibition of ethyl methanesulfonate-induced mutation at 37.5 ug/plate; type: functional, Salmonella enterica subsp. enterica serovar Typhimurium
Salmonella typhimurium [13] = test: Toxicity to Salmonella Typhimurium at 0.3 mg/plate; type: organism-based, Salmonella enterica subsp. enterica serovar Typhimurium; details: in vivo
Salmonella typhimurium [14] = test: Toxicity to Salmonella Typhimurium at 0.6 mg/plate; type: organism-based, Salmonella enterica subsp. enterica serovar Typhimurium; details: in vivo

Compound | inhibition (INH) (Salmonella typhimurium [1]) [%] | inhibition (INH) (Salmonella typhimurium [2]) [%] | inhibition (INH) (Salmonella typhimurium [3]) [%] | inhibition (INH) (Salmonella typhimurium [4]) [%] | inhibition (INH) (Salmonella typhimurium [5]) [%] | inhibition (INH) (Salmonella typhimurium [6]) [%] | inhibition (INH) (Salmonella typhimurium [7]) [%] | inhibition (INH) (Salmonella typhimurium [8]) [%] | inhibition (INH) (Salmonella typhimurium [9]) [%] | inhibition (INH) (Salmonella typhimurium [10]) [%] | inhibition (INH) (Salmonella typhimurium [11]) [%] | inhibition (INH) (Salmonella typhimurium [12]) [%] | Activity (Salmonella typhimurium [13]) | Activity (Salmonella typhimurium [14])
COc1ccc(/C=C2\COc3c(ccc(O)c3O)C2=O)cc1 [INTRICATINOL] | 57 | 87 | 36 | 8 | 70 | 54 | 48 | 26 | 74 | 82 | 74 | 30 | Non-toxic | Non-toxic
COc1ccc(/C=C2\COc3c(ccc(OC)c3O)C2=O)cc1 [INTRICATIN] | 84 | 62 | 92 | 70 | 7 | 0 | 0 | 8 | 45 | 27 | 4 | 9 | Non-toxic | Non-toxic

Source: ChEMBL document CHEMBL1147295, “Plant antimutagens, 6. Intricatin and intricatinol, new antimutagenic homoisoflavonoids from Hoffmanosseggia intricata” (J Nat Prod, 1989)
